# Results taken from patent US9586914B2, “Modulators of C3a receptors” (THE UNIVERSITY OF QUEENSLAND, priority 2011, dated 2017).
# Read-outs that look alike come from different tables or passages of the source.
# Columns and labels:
# [1] = biological target: T1, C3a receptor (C3aR) (Homo sapiens, UniProt Q16581); assay: Competitive binding with [^125I]-C3a in HMDM; details: for pIC50 ± SEM / IC50: HMDM; for remaining activity at 20 µM: 1 h, read-out: %[^125I]-C3a binding
# T1 construct: peripheral blood mononuclear cells were isolated from buffy coat (obtained from Australian Red Cross Blood Service, Kelvin Grove); endogenous in cells; host or cells: primary human monocyte-derived macrophages (HMDM) differentiated from CD14+ monocytes of donor buffy coat
# T1 sequence (Q16581 1-482): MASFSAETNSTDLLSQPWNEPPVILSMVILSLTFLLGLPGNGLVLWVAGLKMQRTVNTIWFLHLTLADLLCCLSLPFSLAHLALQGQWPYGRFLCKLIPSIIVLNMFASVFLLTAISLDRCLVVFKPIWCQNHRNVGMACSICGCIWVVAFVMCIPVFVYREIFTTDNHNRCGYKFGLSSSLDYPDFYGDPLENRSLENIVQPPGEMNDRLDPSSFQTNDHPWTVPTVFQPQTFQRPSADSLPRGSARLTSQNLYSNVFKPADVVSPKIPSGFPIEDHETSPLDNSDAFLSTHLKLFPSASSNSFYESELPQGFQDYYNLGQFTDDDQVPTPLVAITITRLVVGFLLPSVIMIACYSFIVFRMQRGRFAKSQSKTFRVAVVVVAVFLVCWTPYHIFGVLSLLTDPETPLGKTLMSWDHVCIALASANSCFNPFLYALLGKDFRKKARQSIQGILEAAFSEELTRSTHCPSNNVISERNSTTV
# Text: For HMDM, peripheral blood mononuclear cells were isolated from buffy coat (obtained from Australian Red Cross Blood Service, Kelvin Grove) using Ficoll-paque density centrifugation (GE Healthcare Bio-Science, Uppsala, Sweden). CD^14+ monocytes were positively selected using CD^14+ MACS magnetic beads (Miltenyi Biotech, Auburn, Calif., USA). […] Cells were harvested by gentle scraping in saline solution and replated for use on Day 7. […] Unbound radioactivity was removed by filtration through glass microfiber filters GF/B (Whatman Iner. […] The filter was washed 3 times with cold buffer (50 mM Tris-HCl) pH 7.4. […] The −log IC50 for each compound was calculated for separate experiments and express as an arithmetic mean standard error (SE). IC50 values were expressed as a geometric mean.
# [2] = biological target: T2, C3aR (Homo sapiens, UniProt Q16581); assay: Calcium mobilization assay in HMDM (agonist/antagonist activity); type: cell-based; details: for pEC50 ± SEM / EC50: Table 9, Ca^2+ mobilization; for EC50: read-out: EC50; for Emax at 10 µM: read-out: % agonist
# T2 construct: peripheral blood mononuclear cells were isolated from buffy coat (obtained from Australian Red Cross Blood Service, Kelvin Grove); endogenous in cells; host or cells: primary human monocyte-derived macrophages (HMDM) differentiated from CD14+ monocytes of donor buffy coat
# T2 sequence (Q16581 1-482): T1 sequence (Q16581 1-482)
# Method: Harvested HMDM cells were washed with 0.9% NaCl solution by centrifugation at 2500 rpm for 5 min, followed by resuspension of the cell pellet with complete media. Cells were seeded at 5×10^4 cells/well in a 96-well black-wall, clear bottom plate (DKSH, Zurich), and left overnight to adhere at 37° C. On the day of the experiment, supernatant was removed and cells were incubated in dye loading buffer (Hank's Balanced Salt Solution (HBSS) with 4 μM Fluo-3, 25 μL pluronic acid, 1% fetal bovine serum (FBS) and 2.5 mM probenecid) for one hour at 37° C. Cells were then washed twice with HBSS and transferred to a Fluorostar spectrofluorimeter (BMG, Durham N.C.) for oxazole compound injection and fluorescence measurements.
# Various compounds were examined in the calcium mobilization assay for agonist or antagonist activity compared to hC3a and to the known antagonist SB290157.
# HMDMs were seeded into black-wall, clear bottom 96-well plates (Corning Incorporated, NY) at 50,000 cells/well and left to incubate at 37° C. with 5% CO2 overnight for cells to adhere. The medium was removed before being washed with the assay buffer (1×HBSS, 20 mM HEPES, 2.5 mM probenecid, pH 7.4). To each well was added 100 μL of dye-loading buffer made up of 12 mL calcium buffer, 1% FBS, 25 μL of Fluo-3 dye (final concentration of 4 μM) and 25 μL of 20% pluronic acid. The plate was covered in aluminium foil to protect the light-sensitive dye and left to incubate at 37° C. for 1 h. The dye-loading buffer was removed before the cells were washed with the assay buffer to remove excess loading dye. To each well was added 50 μL of fresh assay buffer before the plate was loaded into a FLIPR (Fluorescent Imaging Plate Reader) that can inject treatments and measure any calcium release. To generate agonist plots, calcium release was monitored for 300 seconds. To generate antagonist plots, calcium release was recorded for 900 seconds, which at the same time would allow incubation for the antagonists. After the initial incubation period, an agonist would be added and the response was recorded for 300 seconds. Intracellular release of calcium was recorded via fluorescence measurements at wavelength of 485 nm for excitation and 520 nm for emission.
# [3] = Table 6, competitive binding with [^125I]-C3a
# [4] = Table 6, competitive binding with [^125I]-C3a, read-out: IC50 (converted)
# [5] = Table 8, read-out: Receptor Binding Affinity ^125I IC50
# [6] = Table 10, HMDM, read-out: Antagonist Activity Ca^2+ IC50
# [7] = Table 13, calcium release from HMDM, read-out: Antagonist Activity IC50
structure (smiles),measurement,setting,value
"CC[C@H](C)[C@H](NC(=O)c1ccccc1)c1nc(C(=O)N[C@@H](CCCNC(=N)N)C(=O)O)co1 [Compound 6, Benzoyl Isoleucine Oxazole Arginine-OH]",pIC50 ± SEM,[1]; [3],7.58 ± 0.07
same,IC50,[1]; [4],26 nM
same,pEC50 ± SEM,[2]; HMDM,5.30 ± 0.18
same,EC50,[2]; HMDM,5000 nM
"COc1cccc(CC(=O)N[C@@H](CC(C)C)c2nc(C(=O)N[C@@H](CCCNC(=N)N)C(=O)O)c(C)o2)c1 [Compound 38, 3-Methoxy-phenylacetic acid-Leucine-5-Methyl-Oxazole-Arginin]",remaining activity at 20 µM,[1],41%
same,Emax at 10 µM,[2],87%
"N=C(N)NCCC[C@H](NC(=O)c1oc(C(c2ccccc2)c2ccccc2)nc1-c1ccccc1)C(=O)O [Compound 66, 2-Diphenylmethyl-4-phenyl oxazole-5-carboxyl-Arg-OH]",IC50,[1]; [5],123 nM
same,IC50,[2]; [6],2000 nM
"CC(C)C[C@H](NC(=O)OC(C)(C)C)c1nc(C(=O)N[C@@H](CCCN/C(N)=N\C#N)C(=O)O)co1 [Compound 90, (S)-2-(2-((S)-1-((tert-butoxycarbonyl)amino)-3-methylbutyl)oxazole-4-carboxamido)-5-((Z)-2-cyanoguanidino)pentanoic acid]",IC50,[1]; [4],41 nM
same,EC50,[2]; HMDM,250 nM
"Cc1nc([C@H](CC(C)C)NC(=O)OC(C)(C)C)sc1C(=O)N[C@@H](CCCNC(=N)N)C(=O)O [Compound 82, Boc-Leucine-thiazole-Arginine-OH]",IC50,[1]; [4],375 nM
same,IC50,[2]; [7],200 nM
"Cc1oc([C@H](CC(C)C)NS(=O)(=O)c2ccccc2)nc1C(=O)N[C@@H](CCCNC(=N)N)C(=O)O [Compound 40, Phenyl sulfonamide-Leucine-5-Methyl-Oxazole-Arginine]",remaining activity at 20 µM,[1],44%
same,Emax at 10 µM,[2],103%
"N=C(N)NCCC[C@H](NC(=O)c1ccc(C(c2ccccc2)c2ccccc2)s1)C(=O)NS(=O)(=O)c1ccccc1 [Compound 94, (S)-5-benzhydryl-N-(5-guanidino-1-oxo-1-(phenylsulfonamido)pentan-2-yl)thiophene-2-carboxamide]",IC50,[1]; [4],35 nM
same,IC50,[2]; [7],300 nM
"CC(C)C[C@H](NC(=O)OC(C)(C)C)c1nc(C(=O)N[C@@H](CCCNC(=N)N)C(=O)O)c(-c2ccccc2)o1 [Compound 50, Boc-Leucine-5-Phenyl-Oxazole-Arginine]",IC50,"[1]; Table 6, competitive binding with [^125I]-C3a, read-out: pIC50 ± SEM (converted)",37.2 nM
same,IC50,"[1]; Table 11, [^125I]-C3a, read-out: Receptor Binding Affinity pIC50 ± SE (converted)",37.2 nM
same,Apparent Antagonist Activity pEC50 ± SE (symbol),[2]; Table 11,* (The compounds show no agonist activity in calcium mobilisation assays up to 100 μM.)
same,IC50,"[2]; Table 11, Ca^2+ mobilisation, HMDM, read-out: Apparent Antagonist Activity IC50",16.5 nM
"CC[C@H](C)[C@H](NC(=O)c1ccc(OC)cc1OC)c1nc(C(=O)N[C@@H](CCCNC(=N)N)C(=O)O)co1 [Compound 23, 2,4-Dimethoxybenzoic acid-isoleucine-oxazole-arginine-OH]",pIC50 ± SEM,[1]; [3],6.06 ± 0.13
same,IC50,[1]; [4],872 nM
same,pEC50 ± SEM,[2]; HMDM,6.07 ± 0.13
same,EC50,[2]; HMDM,849 nM
"Cc1oc([C@H](CC(C)C)NC(=O)CC(C)(C)C)nc1C(=O)N[C@@H](CCCNC(=N)N)C(=O)O [Compound 34, 3,3-Dimethylbutanoic acid-Leucine-5-Methyl-Oxazole-Arginine]",remaining activity at 20 µM,[1],44%
same,Emax at 10 µM,[2],70%
"N=C(N)NCCC[C@H](NC(=O)c1nnc(C(c2ccccc2)c2ccccc2)o1)C(=O)O [Compound 69, 2-Diphenylmethyl-1-oxa-3,4-diazole-5-carboxyl-Arginine-OH]",IC50,[1]; [5],2580 nM
same,IC50,[2]; [6],24000 nM
"COc1ccc(CC(=O)N[C@@H](CC(C)C)c2nc(C(=O)N[C@@H](CCCNC(=N)N)C(=O)O)c(C)o2)cc1 [Compound 39, 4-Methoxy-phenylacetic acid-Leucine-5-Methyl-Oxazole-Arginine]",remaining activity at 20 µM,[1],40%
same,Emax at 10 µM,[2],26%
"CC(C)C[C@H](NC(=O)OC(C)(C)C)c1nc(C(=O)N[C@@H](CCCNC(=N)N)C(=O)NS(C)(=O)=O)co1 [Compound 93, tert-butyl ((S)-1-(4-(((S)-5-guanidino-1-(methylsulfonamido)-1-oxopentan-2-yl)carbamoyl)oxazol-2-yl)-3-methylbutyl)carbamate]",IC50,[1]; [4],30 nM
same,IC50,[2]; [7],2000 nM
